# Test results taken from US12180187B2, “1-phenyl-5-azinylpyrazolyl-3-oxyalkyl acids and their use for controlling unwanted plant growth” (BAYER AKTIENGESELLSCHAFT, priority 2019, dated 2024).
# What was measured:
# [1] = tested on: LOLRI; assay: Pre-emergence action against LOLRI, 1280 g/ha; format: in vivo, Lolium rigidum; conditions: visual scoring after about 3 weeks vs untreated controls, 100% = plants have died, 0% = like control plants
# Summary of the method: (§1)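 Activity was scored visually as percent versus untreated controls about 3 weeks after treatment (100% = dead plants, 0% = control-like). Compounds, formulated as wettable powders or emulsion concentrates, were sprayed onto the covering soil over freshly sown seeds in sandy loam, with 0.5% additive and 600 L/ha water.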
# [2] = tested on: ABUTH; assay: Pre-emergence action against ABUTH, 1280 g/ha; format: in vivo, Abutilon theophrasti; conditions: scored visually after about 3 weeks vs untreated controls (100% = plants have died)
# Summary of the method: as §1
# [3] = tested on: LOLRI; assay: Pre-emergence action at 320 g/ha against LOLRI; format: in vivo, Lolium rigidum; conditions: visual scoring after about 3 weeks vs untreated controls
# Summary of the method: (§2)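 Weed seeds sown in pots and covered with soil; compounds formulated as WP or EC were sprayed onto the soil surface as aqueous suspension or emulsion with 0.5% additive at 600 l/ha water. Pots kept in greenhouse; activity scored visually after about 3 weeks versus untreated controls (100% = plants dead, 0% = like control).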
# [4] = tested on: VERPE; assay: Pre-emergence action at 320 g/ha against VERPE; format: in vivo, Veronica persica; conditions: visual scoring after about 3 weeks vs untreated controls
# Summary of the method: as §2
# [5] = tested on: ALOMY; assay: Post-emergence action against ALOMY, 1.28 kg/ha; format: in vivo, Alopecurus myosuroides; conditions: dosage 1280 g/ha, visual rating about 3 weeks after treatment vs untreated controls
# Summary of the method: (§3)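 Spray at one-leaf stage with WP/EC + 0.5% additive, 600 L water/ha. Greenhouse, optimum conditions, ~3 wk. Visual % control vs untreated; 0 = no effect, 100 = dead.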
# [6] = tested on: DIGSA; assay: Post-emergence action against DIGSA, 1.28 kg/ha; format: in vivo, Digitaria sanguinalis; conditions: dosage 1280 g/ha, visual rating about 3 weeks after treatment vs untreated controls
# Summary of the method: as §3
# [7] = tested on: ECHCG; assay: Post-emergence action against ECHCG, 1.28 kg/ha; format: in vivo, Echinochloa crus-galli; conditions: dosage 1280 g/ha, visual rating about 3 weeks after treatment vs untreated controls
# Summary of the method: as §3
# [8] = tested on: LOLRI; assay: Post-emergence action against LOLRI, 1.28 kg/ha; format: in vivo, Lolium rigidum; conditions: dosage 1280 g/ha, visual rating about 3 weeks after treatment vs untreated controls
# Summary of the method: as §3
# [9] = tested on: SETVI; assay: Post-emergence action against SETVI, 1.28 kg/ha; format: in vivo, Setaria viridis; conditions: dosage 1280 g/ha, visual rating about 3 weeks after treatment vs untreated controls
# Summary of the method: as §3
# [10] = tested on: ALOMY; assay: Post-emergence action against ALOMY, 320 g/ha; format: in vivo, Alopecurus myosuroides; conditions: dosage 320 g/ha, visual rating about 3 weeks after treatment vs untreated controls (100% = plants died)
# Summary of the method: (§4)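 Greenhouse pot plants in sandy loam received a foliar spray of WP- or EC-formulated compound at the one-leaf stage. Percent activity against untreated controls was assessed visually around three weeks later.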
# [11] = tested on: DIGSA; assay: Post-emergence action at 320 g/ha against DIGSA; format: in vivo, Digitaria sanguinalis; conditions: dosage 320 g/ha, visual rating about 3 weeks after treatment vs untreated controls (100% = plants died)
# Summary of the method: as §4
# [12] = tested on: ABUTH; assay: Post-emergence action at 320 g/ha against ABUTH; format: in vivo, Abutilon theophrasti; conditions: visual rating about 3 weeks after treatment vs untreated controls
# Summary of the method: as §4
# [13] = tested on: SETVI; assay: Post-emergence action at 320 g/ha against SETVI; format: in vivo, Setaria viridis; conditions: visual rating about 3 weeks after treatment vs untreated controls
# Summary of the method: as §4
# [14] = tested on: VIOTR; assay: Post-emergence action at 320 g/ha against VIOTR; format: in vivo, Viola tricolor; conditions: visual rating about 3 weeks after treatment vs untreated controls
# Summary of the method: as §4
# [15] = tested on: MATIN; assay: Post-emergence action against MATIN, 1.28 kg/ha; format: in vivo, Tripleurospermum inodorum (Matricaria inodora); conditions: dosage 1280 g/ha, visual rating about 3 weeks after treatment vs untreated controls (100% = plants died)
# Summary of the method: as §3
# [16] = tested on: VERPE; assay: Post-emergence action against VERPE, 1.28 kg/ha; format: in vivo, Veronica persica; conditions: dosage 1280 g/ha, visual rating about 3 weeks after treatment vs untreated controls (100% = plants died)
# Summary of the method: as §3
Compound,Pre-emergence action against ABUTH [2] [%],Post-emergence action against ALOMY [5] [%],Post-emergence action against DIGSA [6] [%],Post-emergence action against LOLRI [8] [%],Post-emergence action against SETVI [9] [%],Post-emergence action against ALOMY [10] [%],Post-emergence action against ABUTH in % [12] [%],Post-emergence action against SETVI in % [13] [%],Pre-emergence action against LOLRI [1] [%],Pre-emergence action against LOLRI in % [3] [%],Post-emergence action against ECHCG [7] [%],Post-emergence action against MATIN [15] [%],Post-emergence action against VERPE [16] [%],Post-emergence action at 320 g/ha against DIGSA in % [11] [%],Post-emergence action against VIOTR in % [14] [%],Pre-emergence action against VERPE in % [4] [%],other results
"COC(=O)[C@@H](C)Oc1nn(-c2ccccc2F)c(-c2cncnc2)c1Br [VI-011, Methyl (2R)-2-{[4-bromo-1-(2-fluorophenyl)-5-(pyrimidin-5-yl)-1H-pyrazol-3-yl]oxy}propanoate]",90,100,100,100,100,90,90,90,,,,,,,,,"pest or weed control at 1280 g/ha ([1]; Lolium rigidum, 504 h): 100%; pest or weed control at 320 g/ha ([3]; Lolium rigidum, 504 h): 100%; pest or weed control at 320 g/ha ([4]; Veronica persica, 504 h): 90%; pest or weed control at 1280 g/ha ([7]; Echinochloa crus-galli, 504 h): 100%; pest or weed control at 320 g/ha ([11]; Digitaria sanguinalis, 504 h): 90%; pest or weed control at 320 g/ha ([14]; Viola tricolor, 504 h): 90%"
COC(=O)[C@@H](C)Oc1nn(-c2ccccc2)c(-c2cncnc2)c1Br [VI-013],90,100,90,90,90,80,80,90,100,90,100,100,100,90,90,,
COC(=O)[C@@H](C)Oc1nn(-c2ccccc2)c(-c2cccnc2)c1Br [VII-008],90,100,,100,90,100,90,100,100,100,100,90,100,80,90,100,
CCOC(=O)COc1nn(-c2ccccc2F)c(-c2ccc(F)nc2)c1C(F)(F)F [VII-010],100,100,100,,90,90,80,90,100,100,100,90,90,90,80,100,
CCOC(=O)COc1nn(-c2ccccc2F)c(-c2cncc(F)c2)c1Br [VII-015],90,100,100,100,90,90,90,100,100,90,100,100,100,100,90,100,
CCOC(=O)C(C)Oc1nn(-c2ccccc2F)c(-c2ccc(F)nc2)c1Br (stereo not shown) [VII-019],90,100,100,100,90,100,80,80,100,100,100,,90,90,90,100,
O=C(O)COc1nn(-c2ccccc2F)c(-c2cncc(F)c2)c1Br [VII-025],90,100,100,,90,100,90,100,100,90,100,90,100,100,90,100,
COC(=O)C(C)Oc1nn(-c2ccccc2)c(-c2ccc(F)nc2)c1Br (stereo not shown) [VII-026],90,100,100,,,100,80,90,90,80,90,90,100,90,90,80,
COC(=O)COc1nn(-c2ccccc2F)c(-c2ccc(F)nc2)c1C(F)(F)F [VII-031],90,100,100,100,90,100,90,90,100,100,100,100,100,100,90,100,
COC(=O)COc1nn(-c2ccccc2F)c(-c2cncc(F)c2)c1Br [VII-035],90,100,100,100,90,90,90,90,100,90,100,90,100,100,90,100,
